US6703400B2, “Methods for treating multidrug resistance” (Schering Corporation, priority 2001, dated 2004)
Read-outs that look alike come from different tables or passages of the source.

Key:
[1] = target: MDR1 gene product transport enzyme (P-gp) in CR1R12 cell membranes (Cricetulus griseus, UniProt P21448); test: P-gp-mediated ATP hydrolysis (phosphate release) assay with CR1R12 membrane microsomes; assay type: biochemical, rodent
Description: ATP hydrolysis as nmol/min/mg is plotted against SCH66336 concentration.
The second Example monitored the consumption of ATP, a high-energy biological energy source required for transporter enzyme function. ATP is converted to two other chemicals—ADP and inorganic phosphate—during the P-gp mediated transport porcess.
The method was modified to be carried out in a 96-well microplate.
CR1R12 cell membranes enriched with the MDR1 gene product transport enzyme were used for preparation of membrane microsomes. Cells were washed with complete Hanks' buffer before being resuspended in 10 ml lysis buffer (Tris-25 HCl, 50 mM; mannitol, 50 mM; EGTA, 2 mM; and dithiothreitol, 2 mM; pH 7.0 at 25° C.) containing protease inhibitors (phenylmethylsulfonyl fluoride, 1 mM; aprotinin, 10 μg/ml; leupeptin, 10 μg/ml). All subsequent steps were performed at 4° C. The cells were lysed by nitrogen cavitation (Parr Instrument Co., Moline, Ill.) at 500 psi for 15 min twice. Nuclei and mitochondria were sedimented by centrifugation at 4000×g for 10 min. The microsomal membrane fraction was then sedimented by centrifugation at 100,000×g for 60 min. […] Aliquots of membrane microsomes were rapidly frozen and stored at −80 ° C. until analysis.
The microsomes were thawed on ice prior to diluting to 3.5 μg protein per well in ice-cold ATPase buffer (sodium ATP, 3 mM; KCl, 50 mM; MgSO4, 10 mM; dithiothreitol, 3 mM; Tris-HCl, 50 mM; pH 7.0) containing 0.5 mM EGTA (to inhibit Ca-ATPase), 0.5 mM ouabain (to inhibit the Na/K-ATPase), and 3 mM sodium azide (to inhibit the mitochondrial ATPase). The total incubation volume including the various inhibitors was 100 μl. The incubation reaction was initiated by transferring the plate from ice to 37° C. and incubating for 30 min; the reaction was terminated by the addition of 50 μl 12% SDS solution at room temperature, followed by the addition of 50 μl of a mixture solution of (equal volumes) 18% fresh ascorbic acid in 1N HCl and 3% ammonium molybdate in 1 N HCl. After 4 min, 100 μl of a solution of 2% sodium citrate and 2% sodium meta-arsenite in 2% acetic acid was added to fix the color formation. […] The respective values for background with ATPase assay buffer alone were obtained in parallel and subtracted from the values for experimental samples.

[2] = target: T1, P-gp efflux pump in CR1R12 cells (Cricetulus griseus, UniProt P21448); details: compared with verapamil
T1 sequence (P21448 whole entry): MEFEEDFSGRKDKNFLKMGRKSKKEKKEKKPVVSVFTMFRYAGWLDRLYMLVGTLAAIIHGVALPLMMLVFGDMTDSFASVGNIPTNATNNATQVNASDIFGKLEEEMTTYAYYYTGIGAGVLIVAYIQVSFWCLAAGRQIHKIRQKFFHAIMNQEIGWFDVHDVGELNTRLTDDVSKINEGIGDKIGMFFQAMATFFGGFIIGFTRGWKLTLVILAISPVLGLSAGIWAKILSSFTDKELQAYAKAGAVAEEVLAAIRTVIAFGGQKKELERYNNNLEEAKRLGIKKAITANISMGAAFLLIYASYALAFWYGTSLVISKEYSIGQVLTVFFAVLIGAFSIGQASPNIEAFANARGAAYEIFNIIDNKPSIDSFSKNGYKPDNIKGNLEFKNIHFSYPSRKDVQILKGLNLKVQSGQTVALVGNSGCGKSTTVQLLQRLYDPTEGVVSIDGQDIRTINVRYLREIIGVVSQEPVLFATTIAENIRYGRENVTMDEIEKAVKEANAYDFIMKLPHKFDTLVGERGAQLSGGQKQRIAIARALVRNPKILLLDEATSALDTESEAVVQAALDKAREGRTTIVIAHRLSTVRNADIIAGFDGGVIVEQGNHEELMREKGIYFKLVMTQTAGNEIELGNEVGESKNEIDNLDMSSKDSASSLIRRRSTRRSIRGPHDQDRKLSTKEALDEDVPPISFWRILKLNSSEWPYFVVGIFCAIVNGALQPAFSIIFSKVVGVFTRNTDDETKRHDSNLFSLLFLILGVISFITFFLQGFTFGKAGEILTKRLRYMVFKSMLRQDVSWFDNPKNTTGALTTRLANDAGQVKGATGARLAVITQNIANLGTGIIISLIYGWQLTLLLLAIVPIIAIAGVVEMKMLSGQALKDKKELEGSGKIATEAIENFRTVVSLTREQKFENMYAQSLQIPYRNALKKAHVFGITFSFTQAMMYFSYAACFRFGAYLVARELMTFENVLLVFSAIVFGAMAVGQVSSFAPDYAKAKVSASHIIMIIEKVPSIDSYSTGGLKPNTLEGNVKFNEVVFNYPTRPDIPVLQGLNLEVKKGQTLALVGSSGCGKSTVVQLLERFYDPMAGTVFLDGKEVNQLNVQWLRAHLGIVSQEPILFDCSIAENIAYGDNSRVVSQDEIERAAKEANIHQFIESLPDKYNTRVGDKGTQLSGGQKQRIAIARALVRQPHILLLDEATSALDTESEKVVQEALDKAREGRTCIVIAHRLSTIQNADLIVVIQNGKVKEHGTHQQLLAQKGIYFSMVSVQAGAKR
Description: (§1) The efflux phase or incubation was 30 min in all cases. The average number of cells per assay was 10,000. The function for the line through the data is the Hill equation: v=VmaxSn/(K′+Sn). The parameters IC50 and the Hill coefficient along with the standard deviation are shown on the respective graphs.
(§2) CR1R12 cell line, provided by Dr. Alan Senior (Univ. of Rochester), was maintained in complete α-minimum essential medium (α-MEM) supplemented with 10% FBS, penicillin/streptomycin (50 units/50 μg/ml) in a 5% CO2-95% air atmosphere at 37° C. Colchicine (0.5 μg/ml) was added to the culture medium. Cells were grown to 80-90% confluency and treated with trypsin-EDTA before subculturing.
(§3) Fluorescence measurements of individual cells were performed using a Becton-Dickinson FACScalibur fluorescence-activated cell sorter (San Jose, Calif.), equipped with an ultraviolet argon laser (excitation at 488 nm, emission at 530/30 and 570/30 nm band-pass filters). […]
(§4) Cell viability was assessed using exclusion of 0.4% trypan blue as well as propidium iodide staining. Dead cells in which propidium iodide was bound to double strands of DNA or RNA were detected in certain regions of the cytometry dot plots and not included in the final data calculations.
(§5) The DNR fluorescence intensity of individual cells was recorded as histograms. […]

[3] = target: T2, gene product of human MDR1 (P-gp) in NIH 3T3 G185 cells (Homo sapiens, UniProt P08183); details: IC50 G185 vs IC50 CR1R12
T2 sequence (P08183 whole entry): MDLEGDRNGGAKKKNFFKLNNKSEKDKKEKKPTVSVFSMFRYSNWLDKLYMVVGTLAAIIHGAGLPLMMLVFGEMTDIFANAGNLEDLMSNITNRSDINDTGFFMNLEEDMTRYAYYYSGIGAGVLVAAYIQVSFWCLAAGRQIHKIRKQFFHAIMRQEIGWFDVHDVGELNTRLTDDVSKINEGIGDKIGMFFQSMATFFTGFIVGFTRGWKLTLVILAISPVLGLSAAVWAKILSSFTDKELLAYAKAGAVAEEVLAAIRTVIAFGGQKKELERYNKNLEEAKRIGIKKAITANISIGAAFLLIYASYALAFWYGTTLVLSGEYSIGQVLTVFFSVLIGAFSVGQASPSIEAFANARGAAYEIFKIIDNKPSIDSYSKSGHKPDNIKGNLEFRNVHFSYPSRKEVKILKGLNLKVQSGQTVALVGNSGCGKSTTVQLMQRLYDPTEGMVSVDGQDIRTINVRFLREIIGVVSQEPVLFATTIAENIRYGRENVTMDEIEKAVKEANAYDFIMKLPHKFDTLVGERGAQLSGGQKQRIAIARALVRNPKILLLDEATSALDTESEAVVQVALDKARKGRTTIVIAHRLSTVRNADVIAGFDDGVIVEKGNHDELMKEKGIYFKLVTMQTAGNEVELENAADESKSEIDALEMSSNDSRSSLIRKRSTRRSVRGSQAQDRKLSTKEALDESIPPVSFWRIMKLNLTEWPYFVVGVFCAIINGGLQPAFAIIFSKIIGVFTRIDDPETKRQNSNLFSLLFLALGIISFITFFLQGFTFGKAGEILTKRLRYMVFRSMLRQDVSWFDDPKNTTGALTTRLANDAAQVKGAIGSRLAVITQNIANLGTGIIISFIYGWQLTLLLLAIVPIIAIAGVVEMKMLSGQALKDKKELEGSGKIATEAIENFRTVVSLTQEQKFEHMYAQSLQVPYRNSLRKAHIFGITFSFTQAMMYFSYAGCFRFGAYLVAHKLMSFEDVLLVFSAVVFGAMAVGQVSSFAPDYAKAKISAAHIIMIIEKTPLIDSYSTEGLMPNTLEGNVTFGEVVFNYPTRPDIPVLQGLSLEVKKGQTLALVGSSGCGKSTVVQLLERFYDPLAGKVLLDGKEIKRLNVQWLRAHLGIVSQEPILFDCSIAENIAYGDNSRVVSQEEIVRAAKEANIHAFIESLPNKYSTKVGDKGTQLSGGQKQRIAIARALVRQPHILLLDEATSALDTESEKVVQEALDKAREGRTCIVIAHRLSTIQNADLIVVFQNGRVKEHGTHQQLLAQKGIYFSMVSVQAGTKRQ
Description: (§6) The efflux phase or incubation was 30 min in all cases. The average number of cells per assay was 10,000.
(§7) CR1R12 cell line, provided by Dr. Alan Senior (Univ. of Rochester), was maintained in complete α-minimum essential medium (α-MEM) supplemented with 10% FBS, penicillin/streptomycin (50 units/50 μg/ml) in a 5% CO2-95% air atmosphere at 37° C. Colchicine (0.5 μg/ml) was added to the culture medium. Cells were grown to 80-90% confluency and treated with trypsin-EDTA before subculturing. The NIH 3T3 G185 cell line presenting the gene product of human MDR1 was licensed from NIH and maintained in DMEM.
(§8) Fluorescence measurements of individual cells were performed using a Becton-Dickinson FACScalibur fluorescence-activated cell sorter (San Jose, Calif.), equipped with an ultraviolet argon laser (excitation at 488 nm, emission at 530/30 and 570/30 nm band-pass filters). Analysis was gated to include single cells on the basis of forward and side light-scatter and was based on acquisition of data from 10,000 cells. […] A direct functional assay for the P-gp efflux pump in CR1R12 cells was performed with the flow cytometer (Wang et al., 2000).
as §4
(§9) The DNR fluorescence intensity of individual cells was recorded as histograms. The mean fluorescence intensity of 10,000 cells was used for comparison among different conditions. Vanadate was selected as a positive control to normalize the measurements because it can maximally inactivate the P-gp efflux pump. Relative fluorescence was used for quantitation and comparison among different compounds. The relative fluorescence (% inactivation) represents a ratio obtained through the following formula: the geometric mean fluorescence of a discrete sample divided by the geometric mean fluorescence in the presence of 5 mM vanadate, times 100, or expressed as [formula]

P-gp (human MDR1) = P-gp (human MDR1) (Homo sapiens, UniProt P08183); test: in vitro
P-gp (human MDR1), sequence (P08183 whole entry): as above
Description: as §6, §7, §8, §4, §9

[4] = target: T1, P-gp efflux pump in CR1R12 cells; test: cell-based
Description: as §1, §2, §3, §4, §5

[5] = target: T2, gene product of human MDR1 (P-gp) in NIH 3T3 G185 cells; test: cell-based
Description: as §6, §7, §8, §4, §9

P-gp = P-gp (Cricetulus griseus, UniProt P21448); test: Retention of rhodamine 123 (Rho), fluorescent P-gp substrate, in cells
Description: as §8, §9

MDR1 gene product transport enzyme (P-gp) in CR1R12 cell membranes, sequence (P21448 whole entry): as the sequence (P21448 whole entry) above

Question: Which Vmax % control [1] does the source give for `C=C[C@H]1C[N@@]2CC[C@H]1C[C@@H]2[C@@H](O)c1ccnc2ccc(OC)cc12` [Quinidine, quinidine, reference compound] here?
Answer: 239 % control

Question: `CC(=O)[C@H]1CC[C@H]2[C@@H]3CCC4=CC(=O)CC[C@]4(C)[C@H]3CC[C@]12C` [Progesterone, reference compound] was tested. Which Vmax % control ([1]; ATP hydrolysis, Table 1) did it give?
Answer: 236 % control

Question: For `COc1cccc2c1C(=O)c1c(O)c3c(c(O)c1C2=O)C[C@@](O)(C(C)=O)C[C@@H]3O[C@H]1C[C@H](N)[C@H](O)[C@H](C)O1` [Daunorubicin, reference compound], which Vmax % control ([1]; ATP hydrolysis, Table 1) is on record?
Answer: 170 % control

Question: What does the source list for `NC(=O)N1CCC(CC(=O)N2CCC(C3c4ncc(Br)cc4CCc4cc(Cl)cc(Br)c43)CC2)CC1` (stereo not drawn) [SCH66336]?
Answer: effect on rate of ATP hydrolysis relative to baseline rate [1]: concentration-dependent decrease; Vmax ([1]; ATP hydrolysis, Example B results text): ~28 % baseline; Vmax ([1]; ATP hydrolysis, FIG. 2 legend): 28 % of control; extent of inhibition of DNR transport [2]: exceeding that of verapamil; potency in G185 cells relative to CR1R12 cell line [3]: three times as potent; IC50 at 30 min (P-gp (human MDR1)): < 3 µM; IC50 [4]: ~9 µM; IC50 [5]: ~3 µM; IC50 (P-gp): ~11 µM
